According to PMC549409 (Nucleic Acids Research, 2005):

Biological target: Has1p (Saccharomyces cerevisiae, UniProt Q03532)
Experiment: malachite green ATPase assay, ADP competition
Type: biochemical
Conditions: 1 mM ADP with 1 mM ATP; total yeast RNA; pH 6.5; 2 mM MgCl2; 30°C; data not shown

Has1p, sequence (Q03532 whole entry): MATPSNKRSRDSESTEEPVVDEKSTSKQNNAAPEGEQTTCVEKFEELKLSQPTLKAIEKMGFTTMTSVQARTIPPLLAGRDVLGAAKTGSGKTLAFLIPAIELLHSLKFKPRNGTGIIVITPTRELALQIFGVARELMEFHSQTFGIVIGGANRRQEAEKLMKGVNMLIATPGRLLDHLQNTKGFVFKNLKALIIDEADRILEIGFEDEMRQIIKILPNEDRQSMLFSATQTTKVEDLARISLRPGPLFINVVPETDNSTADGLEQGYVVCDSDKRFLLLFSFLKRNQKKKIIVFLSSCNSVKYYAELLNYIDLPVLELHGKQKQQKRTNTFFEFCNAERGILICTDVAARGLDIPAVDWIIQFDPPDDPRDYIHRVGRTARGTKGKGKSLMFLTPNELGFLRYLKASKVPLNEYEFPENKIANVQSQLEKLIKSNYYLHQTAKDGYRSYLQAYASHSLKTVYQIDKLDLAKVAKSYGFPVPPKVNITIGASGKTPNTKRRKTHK

Nc1ncnc2c1ncn2[C@@H]1O[C@H](COP(=O)(O)OP(=O)(O)O)[C@@H](O)[C@H]1O [ADP]
fold reduction of ATPase activity at 1 mM ADP: 5 fold
